Key:
Assay type in all cases: biochemical
[1] = molecular target: T1, yeast α-glucosidase (Saccharomyces cerevisiae, UniProt P53341); assay: α-Glucosidase Inhibition Assay, pH 7.4; conditions: read-out: ALPHA GLUCOSIDASE inhibition; for inhibition at 1000 µM: @ 1 mM; for inhibition at 5000 µM: @ 5 mM
T1 construct: purchased Sigma
Protocol: (§1) The glycosidase inhibition activity is determined by modifying an assay procedure described in Evans et al, Phytochemistry, 22, pp. 768-770 (1983). More particularly, yeast α-glucosidase and almond β-glucosidase activities were measured by the Evans et al method which was modified by assaying activities at pH 7.4 in N-2-hydroxyethylpiperazine-N-2-ethane sulfonic acid (HEPES) buffer, measuring in 96 well microtiter plates, and including 10% DMSO in control and test samples.
(§2) The release of p-nitrophenol from the substrate p-nitrophenylglycoside was measured spectrophotometrically in the presence and absence of test compound. Each assay included a known inhibitor of the enzyme as a standard. IC50 values were determined for compounds which inhibited the enzymes more than 50& at a 1 millimolar concentration.
To 100 ul 50 mM HEPES buffer, pH 7.4, in a microtiter plate, 20 ul test compound in DMSO (DMSO alone in control)and 40 ul (0.013 units) yeast α-glucosidase (Sigma) in HEPES buffer were added and pre-incubated at room temperature 15 minutes. 40 ul 1.25 mM p-nitro-phenyl-α-D-glucopyranoside (Sigma) in HEPES buffer, as substrate was added and the absorbance change at 405 nm was monitored in a Biotek EIA Autoreader. Absorption change was measured at 15 to 25 minutes (reaction was linear for at least 30 minutes). Each sample was tested in triplicate. IC50 values were determined from the linear portion of the log concentration vs percent inhibition curve obtained from a minimum of 3 points. Deoxynojirimycin was used as standard inhibitor.

[2] = test system: almond β-glucosidase; assay: β-Glucosidase Inhibition Assay, pH 4.8
Protocol: as §1, §2
To 100 ul 50 mM sodium citrate buffer, pH 4.8, in a microtiter plate, 20 ul test compound in DMSO (DMSO alone in control) and 20 ul (0.017 units) β-glucosidase (Sigma) in citrate buffer were added and pre-incubated at room temperature 15 minutes. 20 ul 2.50 mM p-nitrophenyl-β-D-glucopyranside in citrate buffer was added as substrate and incubated at room temperature 20 minutes (reaction is linear for at least 30 minutes). 50 ul 0.4 M NaOH was added and the absorption change at 405 nm was determined utilizing a Biotek EIA Autoreader. Each sample was tested in triplioate. IC50 values were determined from the linear portion of the log concentration vs percent inhibition curve obtained from a minimum of 3 points. Castanospermine was used as standard inhibitor.

[3] = test system: almond β-glucosidase; assay: β-Glucosidase Inhibition Assay, pH 7.4
Protocol: as §1, §2
To 100 ul 50 mM HEPES buffer, pH 7.4, in a microtiter plate, 20 ul test compound in DMSO (DMSO alone in control) and 40 ul (0.136 units) β-glucosidase (Sigma) in HEPES buffer were added and pre-incubated at room temperature 15 minutes. 40 ul 1.25 mM p-nitrophenylβ-D-glucopyranoside in HEPES buffer was added as substrate and the absorbance change at 405 nm was monitored utilizing a Biotek EIA Autoreader. Absorption change was measured at 15 to 25 minutes (reaction is linear for at least 30 minutes). Each sample was tested in triplicate. IC50 values were determined from the linear portion of the log concentration vs percent inhibition curve obtained from a minimum of 3 points. Castanospermine was used as standard inhibitor.

[4] = molecular target: T2, ALPHA MANNOSIDASE (Canavalia ensiformis, UniProt C0HJB3); assay: Alpha mannosidase inhibition, pH 4.5; conditions: for inhibition at 1000 µM: @ 1 mM; for inhibition at 5000 µM: @ 5 mM
T2 sequence (C0HJB3 1-562 limits assumed): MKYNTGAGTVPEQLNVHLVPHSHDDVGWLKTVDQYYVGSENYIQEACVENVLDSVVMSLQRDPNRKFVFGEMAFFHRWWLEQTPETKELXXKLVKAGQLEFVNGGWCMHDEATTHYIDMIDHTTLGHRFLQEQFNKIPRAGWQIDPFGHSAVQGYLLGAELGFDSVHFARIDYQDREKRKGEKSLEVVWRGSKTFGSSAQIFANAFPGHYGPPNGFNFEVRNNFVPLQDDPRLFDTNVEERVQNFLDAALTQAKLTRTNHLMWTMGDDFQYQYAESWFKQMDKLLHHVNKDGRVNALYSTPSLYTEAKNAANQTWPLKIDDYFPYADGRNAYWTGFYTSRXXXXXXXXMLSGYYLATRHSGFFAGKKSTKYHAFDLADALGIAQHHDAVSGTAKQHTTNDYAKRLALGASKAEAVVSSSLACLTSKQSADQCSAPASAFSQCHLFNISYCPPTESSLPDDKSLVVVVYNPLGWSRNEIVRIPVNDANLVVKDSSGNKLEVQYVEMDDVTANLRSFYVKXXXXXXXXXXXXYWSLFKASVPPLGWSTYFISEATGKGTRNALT
T2 sequence (C0HJB3 563-981 limits assumed): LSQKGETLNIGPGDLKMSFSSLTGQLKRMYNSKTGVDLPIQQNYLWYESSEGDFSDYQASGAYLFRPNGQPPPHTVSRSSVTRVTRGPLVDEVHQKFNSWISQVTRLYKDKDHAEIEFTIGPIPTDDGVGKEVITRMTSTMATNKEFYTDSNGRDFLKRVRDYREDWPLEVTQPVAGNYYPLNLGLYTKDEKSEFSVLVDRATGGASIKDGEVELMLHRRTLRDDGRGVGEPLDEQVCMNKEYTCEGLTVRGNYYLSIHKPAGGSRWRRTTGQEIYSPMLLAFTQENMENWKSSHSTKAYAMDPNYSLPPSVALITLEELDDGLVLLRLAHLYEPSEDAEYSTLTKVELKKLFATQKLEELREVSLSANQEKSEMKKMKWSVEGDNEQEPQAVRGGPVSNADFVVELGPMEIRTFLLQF

[5] = molecular target: T2, ALPHA MANNOSIDASE; assay: Alpha mannosidase inhibition, pH 7.4; conditions: for inhibition at 1000 µM: @ 1 mM; for inhibition at 5000 µM: @ 5 mM

T1 sequence (P53341 whole entry): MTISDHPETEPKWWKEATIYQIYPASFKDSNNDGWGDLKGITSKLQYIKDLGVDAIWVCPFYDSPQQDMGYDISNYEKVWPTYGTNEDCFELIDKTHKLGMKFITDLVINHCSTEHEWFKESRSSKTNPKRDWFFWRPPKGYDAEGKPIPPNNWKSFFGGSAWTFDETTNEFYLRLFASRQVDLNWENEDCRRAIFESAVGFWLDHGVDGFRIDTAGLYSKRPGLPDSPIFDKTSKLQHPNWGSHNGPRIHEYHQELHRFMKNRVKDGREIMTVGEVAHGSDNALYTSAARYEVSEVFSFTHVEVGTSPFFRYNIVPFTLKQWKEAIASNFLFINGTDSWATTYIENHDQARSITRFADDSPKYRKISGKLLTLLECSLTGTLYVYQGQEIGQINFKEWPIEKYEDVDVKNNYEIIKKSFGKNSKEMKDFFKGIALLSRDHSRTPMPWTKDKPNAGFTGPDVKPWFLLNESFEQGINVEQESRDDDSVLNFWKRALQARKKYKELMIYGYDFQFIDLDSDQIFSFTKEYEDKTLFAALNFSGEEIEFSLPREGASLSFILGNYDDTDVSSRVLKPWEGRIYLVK

Compound	inhibition at 1000 µM [1] [%]	inhibition at 5000 µM [1] [%]	BETA GLUCOSIDASE-pH 4.8 inhibition ([2]; @ 1 mM) [%]	BETA GLUCOSIDASE-pH 4.8 inhibition ([2]; @ 5 mM) [%]	BETA GLUCOSIDASE-pH 7.4 inhibition ([3]; @ 1 mM) [%]	BETA GLUCOSIDASE-pH 7.4 inhibition ([3]; @ 5 mM) [%]	inhibition at 1000 µM [4] [%]	inhibition at 5000 µM [4] [%]	inhibition at 1000 µM [5] [%]	inhibition at 5000 µM [5] [%]
OC[C@H]1NC[C@H](F)[C@@H](O)[C@@H]1O [Compound 1, 1,2-dideoxy-2-fluoronojirimycin]	24	64	6	25	11	25	4	5	19	11
CCCCN1C[C@H](F)[C@@H](O)[C@H](O)[C@H]1CO [Compound 2, N-butyl-1,2-dideoxy-2-fluoronojirimycin]	8	13	2	-6	4	11	3	5	4	12
